Laboratory results taken from the NIST ThermoML archive (doi:10.1021/je700260f).
Numbers after ± are expanded uncertainties.

Details: Liquid, Vibrating tube method

**Q.** What does the source list for `FC(C(F)(F)F)C(F)(F)F` [1,1,1,2,3,3,3-heptafluoropropane]?
**A.** mass density (333.15 K, 33156 kPa): 1451.3 ± 1.7 kg/m3; mass density (333.15 K, 33196 kPa): 1451.6 ± 1.7 kg/m3; mass density (333.15 K, 33224 kPa): 1451.7 ± 1.7 kg/m3; mass density (333.15 K, 33268 kPa): 1451.7 ± 1.7 kg/m3; mass density (333.15 K, 33317 kPa): 1451.9 ± 1.7 kg/m3; mass density (333.15 K, 33346 kPa): 1452 ± 1.7 kg/m3; mass density (333.15 K, 33391 kPa): 1452.2 ± 1.7 kg/m3; mass density (333.15 K, 33421 kPa): 1452.4 ± 1.7 kg/m3; mass density (333.15 K, 33465 kPa): 1452.5 ± 1.7 kg/m3; mass density (333.15 K, 33498 kPa): 1452.4 ± 1.7 kg/m3; mass density (333.15 K, 33532 kPa): 1452.7 ± 1.7 kg/m3; mass density (333.15 K, 33566 kPa): 1452.8 ± 1.7 kg/m3; mass density (333.15 K, 33615 kPa): 1453 ± 1.7 kg/m3; mass density (333.15 K, 33639 kPa): 1453.3 ± 1.7 kg/m3; mass density (333.15 K, 33683 kPa): 1453.3 ± 1.7 kg/m3; mass density (333.15 K, 33713 kPa): 1453.3 ± 1.7 kg/m3; mass density (333.15 K, 33753 kPa): 1453.7 ± 1.7 kg/m3; mass density (333.15 K, 34447 kPa): 1456.1 ± 1.7 kg/m3; mass density (333.15 K, 34493 kPa): 1456.2 ± 1.7 kg/m3; mass density (333.15 K, 34519 kPa): 1456.4 ± 1.7 kg/m3; mass density (333.15 K, 34541 kPa): 1456.4 ± 1.7 kg/m3; mass density (333.15 K, 34553 kPa): 1456.4 ± 1.7 kg/m3; mass density (333.15 K, 34564 kPa): 1456.6 ± 1.7 kg/m3; mass density (333.15 K, 34570 kPa): 1456.7 ± 1.7 kg/m3; mass density (333.16 K, 8979 kPa): 1316.3 ± 1.5 kg/m3; mass density (333.16 K, 9012 kPa): 1316.5 ± 1.5 kg/m3; mass density (333.16 K, 9767 kPa): 1323.1 ± 1.5 kg/m3; mass density (333.16 K, 9793 kPa): 1323.2 ± 1.5 kg/m3; mass density (333.16 K, 9821 kPa): 1323.4 ± 1.5 kg/m3; mass density (333.16 K, 9857 kPa): 1323.7 ± 1.5 kg/m3; mass density (333.16 K, 9885 kPa): 1324 ± 1.5 kg/m3; mass density (333.16 K, 9911 kPa): 1324.3 ± 1.5 kg/m3; mass density (333.16 K, 9936 kPa): 1324.5 ± 1.5 kg/m3; mass density (333.16 K, 9961 kPa): 1324.7 ± 1.5 kg/m3; mass density (333.16 K, 9986 kPa): 1324.9 ± 1.5 kg/m3; mass density (333.16 K, 10016 kPa): 1325.2 ± 1.5 kg/m3; mass density (333.16 K, 10042 kPa): 1325.3 ± 1.5 kg/m3; mass density (333.16 K, 10070 kPa): 1325.4 ± 1.5 kg/m3; mass density (333.16 K, 10094 kPa): 1325.8 ± 1.5 kg/m3; mass density (333.16 K, 10119 kPa): 1326.1 ± 1.5 kg/m3; mass density (333.16 K, 10148 kPa): 1326.3 ± 1.5 kg/m3; mass density (333.16 K, 10178 kPa): 1326.6 ± 1.5 kg/m3; mass density (333.16 K, 10203 kPa): 1326.6 ± 1.5 kg/m3; mass density (333.16 K, 10236 kPa): 1326.9 ± 1.5 kg/m3; mass density (333.16 K, 10265 kPa): 1327.2 ± 1.5 kg/m3; mass density (333.16 K, 10287 kPa): 1327.4 ± 1.5 kg/m3; mass density (333.16 K, 10312 kPa): 1327.6 ± 1.5 kg/m3; mass density (333.16 K, 10338 kPa): 1327.9 ± 1.5 kg/m3; mass density (333.16 K, 10367 kPa): 1328.1 ± 1.5 kg/m3; mass density (333.16 K, 10397 kPa): 1328.3 ± 1.5 kg/m3; mass density (333.16 K, 10430 kPa): 1328.5 ± 1.5 kg/m3; mass density (333.16 K, 10457 kPa): 1328.7 ± 1.5 kg/m3; mass density (333.16 K, 10483 kPa): 1329 ± 1.5 kg/m3; mass density (333.16 K, 10515 kPa): 1329.4 ± 1.5 kg/m3; mass density (333.16 K, 10537 kPa): 1329.3 ± 1.5 kg/m3; mass density (333.16 K, 10570 kPa): 1329.8 ± 1.5 kg/m3; mass density (333.16 K, 10596 kPa): 1329.9 ± 1.5 kg/m3; mass density (333.16 K, 10624 kPa): 1330.1 ± 1.5 kg/m3; mass density (333.16 K, 10654 kPa): 1330.5 ± 1.5 kg/m3; mass density (333.16 K, 10839 kPa): 1331.8 ± 1.5 kg/m3; mass density (333.16 K, 10866 kPa): 1332.1 ± 1.5 kg/m3; mass density (333.16 K, 10896 kPa): 1332.3 ± 1.5 kg/m3; mass density (333.16 K, 10918 kPa): 1332.5 ± 1.5 kg/m3; mass density (333.16 K, 10947 kPa): 1332.7 ± 1.5 kg/m3; mass density (333.16 K, 10979 kPa): 1332.9 ± 1.5 kg/m3; mass density (333.16 K, 11112 kPa): 1334 ± 1.5 kg/m3; mass density (333.16 K, 11141 kPa): 1334.3 ± 1.5 kg/m3; mass density (333.16 K, 11160 kPa): 1334.5 ± 1.5 kg/m3; mass density (333.16 K, 11186 kPa): 1334.6 ± 1.5 kg/m3; mass density (333.16 K, 11212 kPa): 1334.9 ± 1.5 kg/m3; mass density (333.16 K, 11245 kPa): 1335.1 ± 1.5 kg/m3; mass density (333.16 K, 11275 kPa): 1335.4 ± 1.5 kg/m3; mass density (333.16 K, 11298 kPa): 1335.5 ± 1.5 kg/m3; mass density (333.16 K, 11320 kPa): 1335.7 ± 1.5 kg/m3; mass density (333.16 K, 11353 kPa): 1336 ± 1.5 kg/m3; mass density (333.16 K, 11388 kPa): 1336.3 ± 1.5 kg/m3; mass density (333.16 K, 11415 kPa): 1336.6 ± 1.5 kg/m3; mass density (333.16 K, 11450 kPa): 1336.7 ± 1.5 kg/m3; mass density (333.16 K, 11481 kPa): 1337 ± 1.5 kg/m3; mass density (333.16 K, 11534 kPa): 1337.4 ± 1.5 kg/m3; mass density (333.16 K, 11792 kPa): 1339.3 ± 1.5 kg/m3; mass density (333.16 K, 11824 kPa): 1339.6 ± 1.5 kg/m3; mass density (333.16 K, 11847 kPa): 1339.8 ± 1.5 kg/m3; mass density (333.16 K, 11870 kPa): 1339.9 ± 1.5 kg/m3; mass density (333.16 K, 11897 kPa): 1340.1 ± 1.5 kg/m3; mass density (333.16 K, 11937 kPa): 1340.4 ± 1.5 kg/m3; mass density (333.16 K, 11965 kPa): 1340.6 ± 1.5 kg/m3; mass density (333.16 K, 11989 kPa): 1340.8 ± 1.5 kg/m3; mass density (333.16 K, 12024 kPa): 1341.1 ± 1.5 kg/m3; mass density (333.16 K, 12062 kPa): 1341.3 ± 1.5 kg/m3; mass density (333.16 K, 12090 kPa): 1341.4 ± 1.5 kg/m3; mass density (333.16 K, 12120 kPa): 1341.8 ± 1.5 kg/m3; mass density (333.16 K, 12147 kPa): 1342 ± 1.5 kg/m3; mass density (333.16 K, 12167 kPa): 1342.2 ± 1.5 kg/m3; mass density (333.16 K, 12202 kPa): 1342.3 ± 1.5 kg/m3; mass density (333.16 K, 12226 kPa): 1342.6 ± 1.5 kg/m3; mass density (333.16 K, 12261 kPa): 1342.8 ± 1.5 kg/m3; mass density (333.16 K, 12289 kPa): 1343 ± 1.5 kg/m3; mass density (333.16 K, 12321 kPa): 1343.4 ± 1.5 kg/m3; mass density (333.16 K, 12345 kPa): 1343.5 ± 1.5 kg/m3; mass density (333.16 K, 12385 kPa): 1343.8 ± 1.5 kg/m3; mass density (333.16 K, 12416 kPa): 1344 ± 1.5 kg/m3
